Source: patent US20020156013A1, “Asthma associated factors as targets for treating atopic allergies including asthma and related disorders” (priority 1997, published 2002)
Values belong to the compound of their own block, whether it stands above or below them.

Legend:
[1] = test system: Elk (a target of the MAPK pathway); assay: PathDetect signal transduction pathway reporting system (GAL4-Elk luciferase reporter) with activated M-Ras mutants; type: cell-based; conditions: HEK293 cells, GAL4-Elk fusion
Excerpt: In order to characterize the pathway stimulated by activated M-Ras, applicants tested the ability of activated mutants to up-regulate the mitogen-activated protein kinase (MAPK) pathway or the c-Jun N-terminal kinase (JNK) pathway using an in vitro signal transduction pathway reporting system (FIG. 11). This luciferase-based assay allows for indirect measurement of Elk (target of the MAPK pathway) or Jun (target of the JNK pathway) protein activation. Activated MEK1, which activates Elk, served as a positive control for the MAPK pathway whereas activated MEKK was used as a positive control for the JNK pathway because it activates Jun.
The results of this experiment are shown in FIG. 12 for the MAPK pathway. […] In addition, M-Ras-1, M-Ras-2 and M-Ras-3 mutants activated Elk, indicating M-Ras induced activation of the MAPK pathway.
To characterize the activation pathway triggered by activated M-Ras, the ability of the M-Ras mutants described in Example 8 to activate the mitogen-activated protein kinase (MAPK) pathway or the c-JUN N-terminal Kinase (JNK) pathway was tested using the PathDetect in vivo signal transduction pathway reporting system (Stratagene). […] As expected, significant luciferase activity was detected when cells expressed the GAL4-Elk fusion protein together with activated MEK-1. […]

[2] = test system: TS2 cells; assay: Cytokine-induced proliferation of TS2 cells (tritiated thymidine); type: cell-based, murine
Method: TS2 cells were grown in DMEM medium supplemented with 10% fetal calf serum, 50 μM 2-mercaptoethanol, 0.55 mM L-arginine, 0.24 mM L-asparagine and 1.25 mM L-glutamine.
(§1) The murine T-cell line TS2 grows in response to IL-2 and IL-9 in vitro. […] Cells which were maintained in medium described in Example 1 plus IL-2, were washed once with phosphate-buffered saline and plated at 3000 cells per well in the presence of 200 U/ml IL-2 or 200 U/ml of IL-9. Cells were grown for three days in the presence of PD98959 (10 μM) and then pulsed for four hours with tritiated thymidine. The cells were then harvested onto glass fiber filters and analyzed by scintillation counting.
The data is shown as percent growth as compared to cytokine only.

[3] = test system: BaF3 cells; assay: Proliferation of BaF3 cells transfected with wild-type or constitutively active mutant M-Ras; type: cell-based, murine
Method: To assess the ability of M-Ras to be able to exert a constitutive activity on cellular proliferation and to abrogate the requirement of cytokines in a cytokine-dependent cell line, site directed mutagenesis was used to generate mutant M-Ras proteins to assess their activities. Alignment of M-Ras to the H- and K-Ras proteins permitted identification of potential residues that may result in constitutive activation of M-Ras. Two mutants were prepared at codon 22, substituting a Val or Lys for Gly while another mutant was prepared at codon 71 substituting a Lys for Glu. These substitutions had been previously shown to result in active Ras molecules (FIG. 8). […] Mutant Ras cDNA was then cloned into the NotI-XbaI cloning site of the mammalian expression vector pEF-BOS which contains a puromycin resistance gene for selection of transfected cells. These expression vectors were then transfected into the IL-3 dependent cell line BaF3 and it was assayed for cytokine-independent growth. BaF3 cells were transfected with the three mutant M-Ras vectors, the wild type M-Ras vector or an empty vector by electroporation using the Gene Pulsar II (Bio-Rad). The settings used were […], 74 ohms and 300 volts with 50 μg of sterile DNA. Pooled transfected cells were selected with puromycin (3 μg/ml) and M-Ras expression was determined by Northern blot. All constructs expressed equivalent amounts of exogenous M-Ras.
as §1, with “vitro. […] In addition, the MAPK inhibitor PD98059 has the ability to block M-Ras signaling as described in Example 10.” for “vitro.”, “Cells were grown for three days in the presence of PD98959 (10 μM) and then pulsed for four hours with tritiated thymidine.” left out
Cells were plated at 3000 cells/well in the presence or absence of IL-3 and 10 μm PD98059 and assessed for proliferation as described in Example 12. […]

[4] = test system: TS2 cells; assay: Proliferation of TS2 cells with lovastatin (3H-thymidine incorporation); type: cell-based, murine; conditions: Mus musculus, 72 h; IL-2 or IL-9 5 ng/ml, different concentrations of lovastatin, three days; maximal inhibition; read-out: inhibition of cellular proliferation of TS2 cells as compared to untreated cells
Method: To further test the role of M-Ras in IL-9 signaling, yet another IL-9 responsive cell line was treated with the farnesyl transferase inhibitor lovastatin to determine if the Ras pathway was utilized for proliferation. TS2 cells were washed three times and plated in 96-well plates at a density of 1,000 cells per well. IL-2 or IL-9 was added successively at a concentration of 5 ng/ml together with different concentrations of lovastatin as indicated. DMSO was included as the vehicle control. After three days, the rate of proliferation was determined by ^3H-thymidine incorporation ([…] per well) and percent of inhibition was obtained from the ratio between treated and untreated cells.

[5] = test system: M-Ras; assay: M-Ras prenylation in transfected BW5147 cells (immunoprecipitation, SDS-PAGE migration); type: cell-based, murine; conditions: BW5147 cells with pEF-BOS-M-Ras, 4 mg/ml lovastatin, three days, versus untreated
Method: BW5147, a murine thyoma cell line that grows in the absence of any cytokine, was stably transfected with an expression vector containing wild type M-Ras cDNA (pEF-BOS-M-Ras). After two weeks of selection in 3 μg/ml of Puromycin, cells were treated for three days with different compounds previously reported to work as inhibitors of p21 Ras prenylation. Cells were then harvested and proteins were extracted and immunoprecipitated with a rabbit antibody (JAL4) specific for M-Ras. Immunoprecipitates were electrophoretically resolved by SDS-PAGE (18%) and transferred to PVDF membrane. Immunoblots were successively probed with JAL4 antibody (1:1500 dilution) to detect the expression and migratory pattern of M-Ras protein. The non-prenylated form of p21 Ras migrates slower than the fully processed form. […] In contrast, cells transfected with pEF-BOS-M-Ras overexpressed the M-Ras protein.

[6] = molecular target: p38 MAPK (Homo sapiens, UniProt Q16539); conditions: Lee et al., 1994; Gallagher et al., 1997; cited from earlier work
Sequence of p38 MAPK (Q16539 whole entry): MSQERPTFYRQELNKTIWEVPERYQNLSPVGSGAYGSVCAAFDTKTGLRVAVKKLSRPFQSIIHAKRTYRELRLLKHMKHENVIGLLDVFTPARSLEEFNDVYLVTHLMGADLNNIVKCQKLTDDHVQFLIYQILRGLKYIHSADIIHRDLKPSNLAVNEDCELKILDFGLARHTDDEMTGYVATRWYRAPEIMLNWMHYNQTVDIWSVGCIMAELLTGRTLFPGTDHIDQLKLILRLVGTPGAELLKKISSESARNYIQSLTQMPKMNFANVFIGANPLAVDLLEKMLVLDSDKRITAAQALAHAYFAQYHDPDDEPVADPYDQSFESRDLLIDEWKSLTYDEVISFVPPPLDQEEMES

[7] = test system: ERK1, 2 or 5 family or JNK family of MAPK; conditions: Lee et al., 1994; Gallagher et al., 1997; cited from earlier work
[8] = test system: M-Ras; assay: M-Ras induction in mitogen stimulated splenocytes (RT-PCR); type: cell-based, DBA2 mouse; conditions: DBA2 splenocytes, 5 ug/ml concanavalin A, 10 μg/ml aminosterol, 24 hours
Method: Splenocytes from the DBA2 bronchial hyperresponsive mouse were treated with aminosterol compounds to test for their ability to block the induction of M-Ras in response to mitogens. This group of aminosterols was identified from the liver of the dogfish shark and as a class appear to be antiproliferative. This series of aminosterols was assayed for their ability to inhibit M-Ras expression and TH2 activity in mitogen stimulated splenocytes from the DBA2 mouse.
Splenocytes were isolated from naive DBA2 mice by aseptic removal of spleens from anesthetized mice. Spleens were then minced by sterilized scissors and tissue was passed through a sterilized #60 wire mesh sieve. Cells were resuspended in RPMI medium and washed twice in the same medium. Cells were then resuspended in lysis buffer (4.15 g NaCl, 0.5 g KHCO3, 0.019 g EDTA in 500 ml of dH2O) to lyse red blood cells. Cells were incubated at 37° C. for 5 minutes and resuspended in RPMI plus heat inactivated 10% fetal bovine serum. Cells were then spun down and resuspended in RPMI growth media (as above) plus 5 ug/ml of concanavalin A. Cell cultures were treated with 10 μg/ml of the aminosterol compounds for 24 hours and were then harvested for RNA isolation using the Trizol method described by the manufacturer (Gibco-BRL). […]

[9] = test system: TS1-RA3 cells; assay: IL-9 induced proliferation of TS1-RA3 cells (acid phosphatase assay); type: cell-based, murine; conditions: grown in IL-9, varying amounts of manumycin A, 4 days; maximal inhibition
Method: Ras molecules have been previously shown to function after prenlylation via farnesyl transferase and subsequent attachment to the inner cytoplasmic membrane. To test the role of M-Ras in IL-9 signaling, IL-9 responsive cells were treated with the farnesyl transferase inhibitor manumycin A in a proliferation assay to determine if the Ras pathway was utilized for proliferation. TS1-RA3 cells, which are a murine TH2 lymphocyte cell line expressing human IL-9 receptor by a transfected expression construct, were grown in the presence of IL-9 and in the absence or in varying amounts of manumycin A for 4 days.

luciferase induction by M-Ras-1, M-Ras-2 and M-Ras-3 mutants [1]: blocked
Structure (SMILES): COc1cccc(-c2cc(=O)c3ccccc3o2)c1N [PD98059]
growth of cells grown in IL-2 ([2]; 200 U/ml IL-2, inhibitor 10 μM, three days): no inhibitory activity
growth of cells grown in IL-9 ([2]; 200 U/ml IL-9, inhibitor 10 μM, three days): growth inhibited
proliferation of cells expressing the mutant M-Ras gene ([3]; BaF3, absence of IL-3, 10 μm PD98059): blocked
IL-3 induced cellular proliferation of M-Ras wild-type transfected cells ([3]; BaF3, with IL-3, 10 μm PD98059): no activity
proliferation of mutant M-Ras cells grown with IL-3 (cellular toxicity check) ([3]; BaF3, with IL-3, 10 μm PD98059): could proliferate

Structure (SMILES): CC[C@H](C)C(=O)O[C@H]1C[C@@H](C)C=C2C=C[C@H](C)[C@H](CC[C@@H]3C[C@@H](O)CC(=O)O3)[C@H]21 [lovastatin]
inhibition at 0.005 µg/mL [4]: ≤ 95%
migration of M-Ras protein on SDS-PAGE (non-prenylated form migrates slower) [5]: migrated higher

Structure (SMILES): Oc1ccc(-c2nc(-c3ccncc3)c(-c3ccc(F)cc3)[nH]2)cc1 [SB202190]
ability of TS2 cells to proliferate in response to IL-2 ([2]; IL-2, percent growth compared to cytokine only): not
ability of TS2 cells to proliferate in response to IL-9 ([2]; IL-9, percent growth compared to cytokine only): blocked
inhibition of p38 MAPK [6]: specifically inhibit
inhibition of ERK1, 2 or 5 family or JNK family of MAPK [7]: not

Structure (SMILES): CC(C)[C@@H](CC[C@@H](C)[C@H]1CC[C@H]2[C@@H]3[C@H](O)C[C@H]4C[C@@H](NCCCNCCCCNCCCN)CC[C@]4(C)[C@H]3CC[C@]12C)OS(=O)(=O)O [compound 1436]
expression of M-Ras [8]: no effect

Structure (SMILES): CCCC[C@@H](C)/C=C(C)/C=C(\C)C(=O)NC1=C[C@@](O)(/C=C/C=C/C=C/C(=O)NC2=C(O)CCC2=O)[C@@H]2O[C@@H]2C1=O [manumycin A]
inhibition of cellular proliferation of TS1-RA3 cells as compared to untreated cells [9]: up to 76%
